# Patent US9113629B2, “4-amino-6-(4-substituted-phenyl)-picolinates and 6-amino-2-(4-substituted-phenyl)-pyrimidine-4-carboxylates and their use as herbicides” (DOW AGROSCIENCES LLC, priority 2013, dated 2015)
# Read-outs that look alike come from different tables or passages of the source.
# Legend:
# [1] = system: Key Broadleaf Weed and Crop Species; test: Post-emergent Test II herbicidal activity (Table 5); assay type: in vivo; details: for pest or weed control at 70 g/ha / pest or weed control at 140 g/ha: post-emergence, 336 h, 14 days after application; for pest or weed control at 70 g/ha: application rate 70 g ai/ha; for pest or weed control at 140 g/ha: application rate 140 g ai/ha; for Visual Growth Reduction (%) 14 Days After Application, ABUTH / Visual Growth Reduction (%) 14 Days After Application, AMARE / Visual Growth Reduction (%) 14 Days After Application, BRSNN / Visual Growth Reduction (%) 14 Days After Application, CHEAL / Visual Growth Reduction (%) 14 Days After Application, EPHHL / Visual Growth Reduction (%) 14 Days After Application, HELAN / Visual Growth Reduction (%) 14 Days After Application, VIOTR: post-emergent
# Method in brief: (§1)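 Percent injury, 0 (none) to 100 (complete kill), was judged visually 14 d after spraying young plants at the first or second true leaf stage with compound in an acetone/DMSO aqueous carrier at 187 L/ha. Plants were kept in a greenhouse at 23–29 °C by day.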
# [2] = system: Key Grass and Sedge Weeds as well as Grass Crops; test: Post-emergent Test II herbicidal activity (Table 6); assay type: in vivo; details: for pest or weed control at 70 g/ha / pest or weed control at 140 g/ha: post-emergence, 336 h; for pest or weed control at 70 g/ha: 70 g ai/ha; for pest or weed control at 140 g/ha: 140 g ai/ha; for Visual Growth Reduction (%) 14 Days After Application, SORVU: SORVU: sorghum (Sorghum vulgare); for Visual Growth Reduction (%) 14 Days After Application, TRZSS: TRZSS (wheat)
# Method in brief: as §1
# [3] = ABUTH: velvetleaf (Abutilon theophrasti), read-out: Visual Growth Reduction (%) 14 Days After Application, ABUTH
# [4] = AMARE: redroot pigweed (Amaranthus retroflexus), read-out: Visual Growth Reduction (%) 14 Days After Application, AMARE
# [5] = BRSNN: oilseed-rape, canola (Brassica napus), read-out: Visual Growth Reduction (%) 14 Days After Application, BRSNN
# [6] = CHEAL: lambsquarters (Chenopodium album), read-out: Visual Growth Reduction (%) 14 Days After Application, CHEAL
# [7] = EPHHL: wild poinsettia (Euphorbia heterophylla), read-out: Visual Growth Reduction (%) 14 Days After Application, EPHHL
# [8] = HELAN: sunflower (Helianthus annuus), read-out: Visual Growth Reduction (%) 14 Days After Application, HELAN
# [9] = VIOTR: wild pansy (Viola tricolor), read-out: Visual Growth Reduction (%) 14 Days After Application, VIOTR
# [10] = CYPES: yellow nutsedge (Cyperus esculentus), read-out: Visual Growth Reduction (%) 14 Days After Application, CYPES
# [11] = DIGSA: crabgrass (Digitaria sanguinalis), read-out: Visual Growth Reduction (%) 14 Days After Application, DIGSA
# [12] = ECHCG: barnyardgrass (Echinochloa crus-galli), read-out: Visual Growth Reduction (%) 14 Days After Application, ECHCG
# [13] = ORYSA: rice (Oryza sativa), crop, read-out: Visual Growth Reduction (%) 14 Days After Application, ORYSA
# [14] = SETFA: giant foxtail (Setaria faberi), read-out: Visual Growth Reduction (%) 14 Days After Application, SETFA
# [15] = SORVU: grain sorghum (Sorghum vulgare), read-out: Visual Growth Reduction (%) 14 Days After Application, SORVU
# [16] = TRZSS (wheat, Triticum aestivum), crop, read-out: Visual Growth Reduction (%) 14 Days After Application, TRZSS
# [17] = ZEAMX: maize, corn (Zea mays), crop, read-out: Visual Growth Reduction (%) 14 Days After Application, ZEAMX
smiles,measurement,setting,value
"Nc1c(F)c(-c2ccc(I)cc2)nc(C(=O)O)c1Cl [Compound 45, 4-amino-3-chloro-5-fluoro-6-(4-iodophenyl)picolinic acid]",pest or weed control at 70 g/ha,[1]; [3],95 to 100%
same,pest or weed control at 140 g/ha,[1]; [3],95 to 100%
same,pest or weed control at 70 g/ha,[1]; [4],95 to 100%
same,pest or weed control at 140 g/ha,[1]; [4],95 to 100%
same,pest or weed control at 70 g/ha,[1]; [5],95 to 100%
same,pest or weed control at 140 g/ha,[1]; [5],95 to 100%
same,pest or weed control at 70 g/ha,[1]; [6],95 to 100%
same,pest or weed control at 140 g/ha,[1]; [6],95 to 100%
same,pest or weed control at 70 g/ha,[1]; [7],95 to 100%
same,pest or weed control at 140 g/ha,[1]; [7],95 to 100%
same,pest or weed control at 70 g/ha,[1]; [8],95 to 100%
same,pest or weed control at 140 g/ha,[1]; [8],95 to 100%
same,pest or weed control at 70 g/ha,[1]; [9],85 to 94%
same,pest or weed control at 140 g/ha,[1]; [9],95 to 100%
same,pest or weed control at 70 g/ha,[2]; [10],85 to 94%
same,pest or weed control at 140 g/ha,[2]; [10],95 to 100%
same,pest or weed control at 70 g/ha,[2]; [11],85 to 94%
same,pest or weed control at 140 g/ha,[2]; [11],85 to 94%
same,pest or weed control at 70 g/ha,[2]; [12],95 to 100%
same,pest or weed control at 140 g/ha,[2]; [12],95 to 100%
same,pest or weed control at 70 g/ha,[2]; [13],45 to 59%
same,pest or weed control at 140 g/ha,[2]; [13],60 to 74%
same,pest or weed control at 70 g/ha,[2]; [14],85 to 94%
same,pest or weed control at 140 g/ha,[2]; [14],85 to 94%
same,pest or weed control at 70 g/ha,[2]; [15],60 to 74%
same,pest or weed control at 140 g/ha,[2]; [15],95 to 100%
same,pest or weed control at 70 g/ha,[2]; [16],60 to 74%
same,pest or weed control at 140 g/ha,[2]; [16],75 to 84%
same,pest or weed control at 70 g/ha,[2]; [17],85 to 94%
same,pest or weed control at 140 g/ha,[2]; [17],95 to 100%
COC(=O)c1nc(-c2ccc(C(F)(F)F)c(F)c2)c(Cl)c(N)c1Cl [Compound 58],"Visual Growth Reduction (%) 14 Days After Application, ABUTH","[1]; ABUTH: velvetleaf (Abutilon theophrasti), 70 g ai/ha",B (85-94)
same,"Visual Growth Reduction (%) 14 Days After Application, ABUTH","[1]; ABUTH: velvetleaf (Abutilon theophrasti), 140 g ai/ha",A (95-100)
same,"Visual Growth Reduction (%) 14 Days After Application, AMARE","[1]; AMARE: redroot pigweed (Amaranthus retroflexus), 70 g ai/ha",B (85-94)
same,"Visual Growth Reduction (%) 14 Days After Application, AMARE","[1]; AMARE: redroot pigweed (Amaranthus retroflexus), 140 g ai/ha",A (95-100)
same,"Visual Growth Reduction (%) 14 Days After Application, BRSNN","[1]; BRSNN: oilseed-rape, canola (Brassica napus), 70 g ai/ha",D (60-74)
same,"Visual Growth Reduction (%) 14 Days After Application, BRSNN","[1]; BRSNN: oilseed-rape, canola (Brassica napus), 140 g ai/ha",C (75-84)
same,"Visual Growth Reduction (%) 14 Days After Application, CHEAL","[1]; CHEAL: lambsquarters (Chenopodium album), 70 g ai/ha",A (95-100)
same,"Visual Growth Reduction (%) 14 Days After Application, CHEAL","[1]; CHEAL: lambsquarters (Chenopodium album), 140 g ai/ha",A (95-100)
same,"Visual Growth Reduction (%) 14 Days After Application, EPHHL","[1]; EPHHL: wild poinsettia (Euphorbia heterophylla), 70 g ai/ha",G (0-29)
same,"Visual Growth Reduction (%) 14 Days After Application, EPHHL","[1]; EPHHL: wild poinsettia (Euphorbia heterophylla), 140 g ai/ha",G (0-29)
same,"Visual Growth Reduction (%) 14 Days After Application, HELAN","[1]; HELAN: sunflower (Helianthus annuus), 70 g ai/ha",A (95-100)
same,"Visual Growth Reduction (%) 14 Days After Application, HELAN","[1]; HELAN: sunflower (Helianthus annuus), 140 g ai/ha",A (95-100)
same,"Visual Growth Reduction (%) 14 Days After Application, VIOTR","[1]; VIOTR: wild pansy (Viola tricolor), 70 g ai/ha",G (0-29)
same,"Visual Growth Reduction (%) 14 Days After Application, VIOTR","[1]; VIOTR: wild pansy (Viola tricolor), 140 g ai/ha",G (0-29)
same,"Visual Growth Reduction (%) 14 Days After Application, CYPES","[2]; CYPES: yellow nutsedge (Cyperus esculentus), application rate 70 g ai/ha",A (95-100)
same,"Visual Growth Reduction (%) 14 Days After Application, CYPES","[2]; CYPES: yellow nutsedge (Cyperus esculentus), application rate 140 g ai/ha",A (95-100)
same,"Visual Growth Reduction (%) 14 Days After Application, DIGSA","[2]; DIGSA: crabgrass (Digitaria sanguinalis), application rate 70 g ai/ha",D (60-74)
same,"Visual Growth Reduction (%) 14 Days After Application, DIGSA","[2]; DIGSA: crabgrass (Digitaria sanguinalis), application rate 140 g ai/ha",C (75-84)
same,"Visual Growth Reduction (%) 14 Days After Application, ECHCG","[2]; ECHCG: barnyardgrass (Echinochloa crus-galli), application rate 70 g ai/ha",G (0-29)
same,"Visual Growth Reduction (%) 14 Days After Application, ECHCG","[2]; ECHCG: barnyardgrass (Echinochloa crus-galli), application rate 140 g ai/ha",C (75-84)
same,"Visual Growth Reduction (%) 14 Days After Application, ORYSA","[2]; ORYSA: rice (Oryza sativa), application rate 70 g ai/ha",G (0-29)
same,"Visual Growth Reduction (%) 14 Days After Application, ORYSA","[2]; ORYSA: rice (Oryza sativa), application rate 140 g ai/ha",G (0-29)
same,"Visual Growth Reduction (%) 14 Days After Application, SORVU",[2]; application rate 70 g ai/ha,E (45-59)
same,"Visual Growth Reduction (%) 14 Days After Application, SORVU",[2]; application rate 140 g ai/ha,E (45-59)
same,"Visual Growth Reduction (%) 14 Days After Application, TRZSS",[2]; application rate 70 g ai/ha,E (45-59)
same,"Visual Growth Reduction (%) 14 Days After Application, TRZSS",[2]; application rate 140 g ai/ha,D (60-74)
same,"Visual Growth Reduction (%) 14 Days After Application, ZEAMX","[2]; ZEAMX: maize, corn (Zea mays), application rate 70 g ai/ha",D (60-74)
same,"Visual Growth Reduction (%) 14 Days After Application, ZEAMX","[2]; ZEAMX: maize, corn (Zea mays), application rate 140 g ai/ha",D (60-74)
